Reference: paper PMC4548311 (Journal of Biomolecular Structure & Dynamics, 2014)

What was measured:
influenza A virus = details: cited from earlier work
R361A mutant NP = R361A mutant NP (Influenza A virus, UniProt P15682, R361A)

Structure (SMILES) | emergence of resistant virus (influenza A virus) | stabilization of R361A monomers (R361A mutant NP)
CCOC(=O)C1=C[C@@H](OC(CC)CC)[C@H](NC(C)=O)[C@@H](N)C1 [tamiflu] | generated after four passages | –
COc1ccc2cc([C@H](C)C(=O)O)ccc2c1 [Naproxen, naproxen] | – | No stabilization
